Measurements published in the NIST ThermoML archive (doi:10.1021/je0301085).
Numbers after ± are expanded uncertainties.

Key:
[1] = refractive index (Na D-line) (dimensionless); settings: 101.33 kPa, Liquid, Standard Abbe refractometry
[2] = Liquid; for mass density: 101.33 kPa

**Q.** Which results are given for `CC(Cl)(Cl)Cl` [1,1,1-trichloroethane]?
**A.** refractive index ([1]; 298.15 K): 1.436 ± 0.0007; mass density ([2]; 298.15 K): 1330 ± 5 kg/m3; vapor or sublimation pressure ([2]; 345.25 K): 94.6 ± 0.3 kPa; vapor or sublimation pressure ([2]; 345.35 K): 94.6 ± 0.2 kPa; vapor or sublimation pressure ([2]; 345.65 K): 95.8 ± 0.3 kPa

**Q.** For `ClC(Cl)C(Cl)Cl` [1,1,2,2-tetrachloroethane], which refractive index ([1]; 298.15 K) is on record?
**A.** 1.494 ± 0.0007

**Q.** What about the mass density ([2]; 298.15 K) of the same compound?
**A.** 1587 ± 5 kg/m3

**Q.** And the “vapor or sublimation pressure” value ([2]; 416.95 K)?
**A.** 94.6 ± 0.2 kPa

**Q.** And the “vapor or sublimation pressure” value ([2]; 417.35 K)?
**A.** 95.8 ± 0.2 kPa

**Q.** Which results are given for `ClCCCl` [1,2-dichloroethane]?
**A.** refractive index ([1]; 298.15 K): 1.4421 ± 0.0007; mass density ([2]; 298.15 K): 1247 ± 5 kg/m3; vapor or sublimation pressure ([2]; 354.95 K): 94.6 ± 0.3 kPa; vapor or sublimation pressure ([2]; 355.05 K): 94.6 ± 0.3 kPa; vapor or sublimation pressure ([2]; 355.25 K): 95.8 ± 0.3 kPa

**Q.** With `Clc1ccccc1` [chlorobenzene] as the compound, how does the refractive index ([1]; 293.15 K) read?
**A.** 1.5248 ± 0.0007

**Q.** What about the mass density ([2]; 293.15 K) of the same compound?
**A.** 1106 ± 5 kg/m3

**Q.** What about the “vapor or sublimation pressure” value ([2]; 402.55 K) of the same compound?
**A.** 94.6 ± 0.3 kPa

**Q.** What does the source list for `CCCCCCC` [heptane]?
**A.** refractive index ([1]; 298.15 K): 1.3851 ± 0.0007; mass density ([2]; 298.15 K): 679.5 ± 5 kg/m3; vapor or sublimation pressure ([2]; 369.75 K): 95.8 ± 0.3 kPa; vapor or sublimation pressure ([2]; 369.78 K): 95.8 ± 0.3 kPa

**Q.** For `O=[N+]([O-])c1ccccc1` [nitrobenzene], which refractive index ([1]; 298.15 K) is on record?
**A.** 1.55 ± 0.001

**Q.** And the mass density ([2]; 298.15 K)?
**A.** 1198 ± 5 kg/m3

**Q.** And the “vapor or sublimation pressure” value ([2]; 481.15 K)?
**A.** 94.6 ± 0.3 kPa

**Q.** With `ClC(Cl)=C(Cl)Cl` [tetrachloroethene] as the compound, how does the refractive index ([1]; 298.15 K) read?
**A.** 1.505 ± 0.0007

**Q.** And the mass density ([2]; 298.15 K)?
**A.** 1615 ± 5 kg/m3

**Q.** What about the “vapor or sublimation pressure” value ([2]; 391.25 K) of the same compound?
**A.** 94.6 ± 0.2 kPa

**Q.** And the “vapor or sublimation pressure” value ([2]; 391.65 K)?
**A.** 95.8 ± 0.2 kPa

**Q.** For `ClC=C(Cl)Cl` [trichloroethene], which refractive index ([1]; 298.15 K) is on record?
**A.** 1.4782 ± 0.0007

**Q.** And the mass density ([2]; 298.15 K)?
**A.** 1464 ± 5 kg/m3

**Q.** And the “vapor or sublimation pressure” value ([2]; 358.25 K)?
**A.** 94.6 ± 0.3 kPa

**Q.** And the “vapor or sublimation pressure” value ([2]; 358.55 K)?
**A.** 95.8 ± 0.3 kPa
